Key:
[1] = test system: New Zealand White rabbits; test: Cumulative vaginal mucous membrane irritancy, 10 daily intravaginal doses; assay type: in vivo, rabbit
Protocol: Pullulan capsules (Capsugel NPcaps®, size 0) comprising CDB-4124 were administered once daily for 10 consecutive days intravaginally to 10 healthy virgin female New Zealand White rabbits in order to determine the cumulative vaginal mucous membrane irritancy potential and to obtain plasma samples for pharmacokinetic analysis. Five rabbits were assigned to each of two groups, the first dosed with vehicle control (pullulan capsules with 0.5 ml PEG 1000 fill) introduced into the upper vaginal vault of each rabbit using a syringe applicator (Group 1), the second with CDB-4124 (pullulan capsules with 12 mg CDB-4124 in 0.5 ml PEG 1000)(Group 2). The external vaginal mucosa of each animal was examined for erythema, edema and discharge prior to the initial dose, immediately prior to each treatment and prior to sacrifice. All animals were examined for gross pathology.

[2] = Pharmacokinetics of vaginal pullulan capsules with 12 mg CDB-4124 in women; assay type: in vivo, human
Protocol: (§1) Capsugel NPcaps® were filled with the excipient fill formulations described above with 12 mg CDB-4124 (telapristone acetate) and administered vaginally to human females with uterine fibroids once per day for a period of 2 weeks to determine the length of time required to reach steady state and overall systemic exposure of the parent compound (CDB-4124) and the primary metabolite (CDB-4453). The capsules were administered using a commercially available vaginal applicator modified by reversing the insert (see FIG. 5). The unmodified applicator comprises a barrel and plunger with the barrel having a relatively wide opening on one end and a relatively narrow opening on the other end. The applicator is designed such that the drug is placed in the end with the larger diameter opening (entrance end), the applicator is inserted into the vagina and the plunger is used to push the drug out the barrel and into the vagina. For insertion of the filled NPcaps, the shell end of the capsule (having a […] diameter) was placed into the narrow opening in the barrel, leaving the cap exposed. […] Pharmacokinetic data was then obtained from patients.

[3] = test system: human females with uterine fibroids; test: Vaginal administration of pullulan capsules with 12 mg CDB-4124: menses and fibroid symptoms; assay type: in vivo
Protocol: as §1
(§2) In a previous oral study, doses of 1, 3, 6, 9 and 12 mg of CDB-4124 were administered for a period of 10 weeks. […] Cessation of menses directly correlates to efficacy of an oral dose in both uterine fibroids and endometriosis. […] Given the overall low exposure of the 12 mg dose, in those women that continued to menstruate, further improvements in reduction of symptoms are expected with longer exposure to the drug. In efficacy studies in which CDB-4124 was administered orally, women experienced a nearly 50% reduction in mean fibroid size at a 25 mg dose. When those women were then escalated to a 50 mg oral dose for an additional four months, fibroid size was reduced to approximately 25% of the initial volume. Based on the assessment of fibroid symptoms as scored by UFSQOL, women on oral CDB-4124 were, in general, symptom free.

[4] = test system: human females with uterine fibroids; test: Previous oral study of CDB-4124, 1, 3, 6, 9 and 12 mg for 10 weeks; assay type: in vivo
Protocol: as §2

uterine fibroids = test: Oral efficacy studies of CDB-4124, 25 mg then 50 mg; assay type: in vivo, human
Protocol: as §2

[5] = 12 mg intravaginally once daily for 10 days
[6] = 12 mg vaginal, pair-wise comparison of 6 women

With COCC(=O)[C@@]1(OC(C)=O)CC[C@H]2[C@@H]3CCC4=CC(=O)CCC4=C3[C@@H](c3ccc(N(C)C)cc3)C[C@@]21C [CDB-4124, 21-methoxy-17α-acetoxy-11β-(4 N,N-dimethylaminophenyl)-19-norpregna-4,9-diene-3,20-dione] the “External vaginal mucosa: erythema, edema” value ([1]; 12 mg CDB-4124 in pullulan capsule intravaginally once daily for 10 days) was “⅖ rabbits showed very slight erythema and/or edema on 4 occasions”, the “Gross findings in ovaries, uterus, three sections of the vagina” value [1, 5] was “No gross findings” and the Histopathological findings [1, 5] was “nor were any histopathological findings observed”. The Irritation index [1, 5] was “none”, the “Drug peak after steady state” value ([2]; 12 mg vaginal once per day, women) was “no obvious drug peak” and the “Systemic exposure relative to an equivalent oral dose, based on AUC” value ([2]; 12 mg vaginal versus 12 mg oral, women) was “about ⅙”. For the same compound, the “Cmax compared with oral doses” value ([2]; 12 mg vaginal versus 1, 3, 6, 9, 12 mg oral, women) was “lower than any of the oral doses”, the “Release profile from pullulan capsules” value ([2]; 12 mg vaginal, steady state, 24 hour period, women) was “continuous release of active agents at a substantially constant rate” and the “Exposure compared with the 1 mg oral dose” value ([2]; 12 mg vaginal, women) was “only a fraction of the exposure of the ineffective 1 mg oral dose”. For the same compound, the “Maximum exposure relative to the 50 mg oral dose” value ([2]; 12 mg vaginal, women) was 1/100, the “Time to steady state concentration” value ([2]; women with uterine fibroids, 12 mg vaginal pullulan capsule once per day) was “one” and the “Cessation of menses, number of women” value ([3]; 12 mg vaginal once per day, 6 women) was 3 women. For the same compound, the Fibroid related condition ([3]; 12 mg vaginal, after only 4 weeks of treatment) was “significant improvements”, the “Reduction in menstrual bleeding, Pictorial Blood Loss Assessment Chart (PBAC)” value [3, 6] was “Statistical significance (p<0.05)” and the “Reduction in overall uterine fibroid symptoms, Uterine Fibroid Symptom Quality of Life Survey (UFSQOL)” value [3, 6] was “Statistical significance (p<0.05)”. For the same compound, the “Efficacy of the 1 mg oral dose” value ([4]; oral 1 mg) was “ineffective”, the Tolerability ([4]; oral 1, 3, 6, 9 and 12 mg for 10 weeks) was “all doses were well tolerated” and the “Lowest dose inducing reliable cessation of menses” value ([4]; oral, 10 weeks) was 3 mg. For the same compound, the “Fibroid size as share of the initial volume” value (uterine fibroids; escalated to 50 mg oral dose for an additional four months) was “approximately 25%”, the “Reduction in mean fibroid size” value (uterine fibroids; oral 25 mg dose) was ~50% and the “Fibroid symptoms as scored by UFSQOL” value (uterine fibroids; oral CDB-4124) was “symptom free”.
